Test results: publication PMC9941834, “Histidine supplementation can escalate or rescue HARS deficiency in a Charcot–Marie–Tooth disease model” (Human Molecular Genetics, 2022)
Substitutions are numbered along the chain they refer to.

How the values were obtained:
Test in all cases: differential scanning fluorimetry (thermal shift)
Assay type in all cases: binding
[1] = target: T1, hsHARS (human histidyl-tRNA synthetase, HARS) (Homo sapiens, UniProt P12081, V155G); conditions: 1 μM protein, apo mutant TM 59.8 ± 0.7 °C
T1 construct: gene HARS1; hsHARS gene in pDest527, 6x-His tag, E. coli BL21 Codon Plus, Ni-NTA purified; dimeric protein
T1 sequence (P12081 1-509 V155G): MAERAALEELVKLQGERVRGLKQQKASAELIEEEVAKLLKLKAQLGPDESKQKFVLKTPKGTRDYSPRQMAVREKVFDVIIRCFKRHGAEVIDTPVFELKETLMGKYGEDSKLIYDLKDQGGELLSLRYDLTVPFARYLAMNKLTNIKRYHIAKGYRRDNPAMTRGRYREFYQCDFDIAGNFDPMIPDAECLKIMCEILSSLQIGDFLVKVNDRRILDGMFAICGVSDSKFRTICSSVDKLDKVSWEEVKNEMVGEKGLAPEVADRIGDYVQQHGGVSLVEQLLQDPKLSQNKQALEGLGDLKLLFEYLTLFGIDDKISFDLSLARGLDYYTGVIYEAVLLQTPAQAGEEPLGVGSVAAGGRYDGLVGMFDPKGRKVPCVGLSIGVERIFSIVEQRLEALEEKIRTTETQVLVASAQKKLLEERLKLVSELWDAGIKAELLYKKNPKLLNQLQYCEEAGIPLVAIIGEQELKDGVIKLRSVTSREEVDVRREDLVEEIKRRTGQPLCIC
Source text: (§1) differential scanning fluorimetry (thermal shift) on […]

[2] = target: T2, hsHARS (human histidyl-tRNA synthetase, HARS) (Homo sapiens, UniProt P12081, Y454S); conditions: 1 μM protein, apo mutant TM 50 ± 1.8 °C
T2 construct: gene HARS1; hsHARS gene in pDest527, 6x-His tag, E. coli BL21 Codon Plus, Ni-NTA purified; dimeric protein
T2 sequence (P12081 1-509 Y454S): T1 sequence (P12081 1-509 V155G) with G155V, Y454S
Source text: as §1

[3] = target: T3, hsHARS (human histidyl-tRNA synthetase, HARS) (Homo sapiens, UniProt P12081, V133F); conditions: 500 μM ATP, 1 μM protein; apo mutant TM 52 ± 1.2 °C
T3 construct: gene HARS1; hsHARS gene in pDest527, 6x-His tag, E. coli BL21 Codon Plus, Ni-NTA purified; dimeric protein
T3 sequence (P12081 1-509 V133F): T1 sequence (P12081 1-509 V155G) with V133F, G155V
Source text: differential scanning fluorimetry (thermal shift) on hsHARS (human histidyl-tRNA synthetase, HARS) | high ATP concentrations increase the thermal stability of HARS V133F to wild-type levels

TM [3] | TM ([2]; 1 mM histidine) | Compound | TM ([1]; 500 μM ATP) | TM ([2]; 500 μM ATP) | TM ([1]; 1 mM histidine)
63 ± 1.9 °C |  | Nc1ncnc2c1ncn2[C@@H]1O[C@H](COP(=O)(O)OP(=O)(O)OP(=O)(O)O)[C@@H](O)[C@H]1O [ATP] | all substrate supplementations restored wild-type like levels of protein stability | The addition of tRNA or ATP alone or in combination slightly increased stability | 
 | 57.8 ± 0.8 °C | N[C@@H](Cc1cnc[nH]1)C(=O)O [histidine] |  |  | all substrate supplementations restored wild-type like levels of protein stability
